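Where inhibition never reached the appropriate level, the endpoint shown equals the highest concentration tested. Otherwise, values were interpolated linearly from a five-concentration, 48-hour dose response in 96-well plates. GI50 is the concentration that inhibits growth by half.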 Activity calls are given as the source filed them. Rule as the data show it: active = GI50 up to about 1.1 µM and inactive = higher.
How the values were obtained:
Assay in all cases: NCI tumour cell line growth inhibition, 48 h
786-0 = test system: 786-0
HOP-62 = test system: HOP-62
HT-29 = test system: HT-29
LOX IMVI = test system: LOX IMVI
MOLT-4 = test system: MOLT-4
Malme-3M = test system: Malme-3M
OVCAR-4 = test system: OVCAR-4
OVCAR-5 = test system: OVCAR-5
SF-295 = test system: SF-295
SK-MEL-2 = test system: SK-MEL-2
SK-MEL-5 = test system: SK-MEL-5
SN12C = test system: SN12C
SNB-19 = test system: SNB-19
U-251 = test system: U-251
UO-31 = test system: UO-31
HCT-116 = test system: HCT-116
NCI-H460 = test system: NCI-H460
SR = test system: SR

Measured: GI50

Cc1cccc(-n2c(N)c(-c3nc4ccccc4[nH]3)sc2=S)c1
inactive: 786-0 24.4 µM | HOP-62 29.6 µM | HT-29 23.1 µM | LOX IMVI 26.8 µM | MOLT-4 20.6 µM | Malme-3M 28.8 µM | OVCAR-4 43.4 µM | OVCAR-5 55.1 µM | SF-295 28.1 µM | SK-MEL-2 23.7 µM | SK-MEL-5 20.9 µM | SN12C 25.3 µM | SNB-19 36.6 µM | U-251 21.8 µM | UO-31 33 µM

CC12CC(=O)NN=C1c1ccccc1C2 (stereo unspecified)
inactive: 786-0 > 100 µM | HCT-116 > 100 µM | HOP-62 > 100 µM | HT-29 > 100 µM | LOX IMVI > 100 µM | MOLT-4 > 100 µM | Malme-3M > 100 µM | NCI-H460 > 100 µM | OVCAR-5 > 100 µM | SF-295 > 100 µM | SK-MEL-2 > 100 µM | SK-MEL-5 > 100 µM | SN12C > 100 µM | SNB-19 > 100 µM | U-251 > 100 µM | UO-31 > 100 µM

N=C(N)NS(=O)(=O)c1ccc(NC(=O)c2cccc3cc4ccccc4nc23)cc1
inactive: 786-0 67.9 µM | HCT-116 19.3 µM | HOP-62 94.2 µM | HT-29 > 100 µM | LOX IMVI 51.5 µM | MOLT-4 5.55 µM | Malme-3M > 100 µM | NCI-H460 > 100 µM | OVCAR-4 28 µM | OVCAR-5 > 100 µM | SF-295 > 100 µM | SK-MEL-2 > 100 µM | SK-MEL-5 > 100 µM | SN12C > 100 µM | SNB-19 9.79 µM | U-251 87.7 µM | UO-31 > 100 µM

C=C[Si](C)(C)COC(=O)/C(C#N)=C/C=C/c1ccccc1
inactive: 786-0 > 100 µM | HCT-116 > 100 µM | HOP-62 > 100 µM | HT-29 > 100 µM | MOLT-4 28.7 µM | Malme-3M > 100 µM | NCI-H460 > 100 µM | OVCAR-4 > 100 µM | OVCAR-5 > 100 µM | SF-295 > 100 µM | SK-MEL-2 > 100 µM | SK-MEL-5 > 100 µM | SN12C > 100 µM | SNB-19 > 100 µM | SR 25.2 µM | U-251 > 100 µM | UO-31 > 100 µM

CC1OC(OC2C(CO)OC(O[C@H]3CC[C@@]4(C)C(=CC[C@H]5[C@@H]6C[C@@H]7O[C@]8(CC[C@@H](C)CN8)[C@@H](C)[C@@H]7[C@@]6(C)CC[C@@H]54)C3)C(O)C2O)C(O)C(O)C1O (stereo partly specified)
inactive: 786-0 > 100 µM | HCT-116 > 100 µM | HOP-62 > 100 µM | HT-29 > 100 µM | LOX IMVI > 100 µM | MOLT-4 > 100 µM | Malme-3M > 100 µM | NCI-H460 > 100 µM | OVCAR-4 > 100 µM | OVCAR-5 > 100 µM | SF-295 > 100 µM | SK-MEL-2 > 100 µM | SK-MEL-5 > 100 µM | SN12C > 100 µM | SNB-19 > 100 µM | U-251 > 100 µM | UO-31 > 100 µM

COc1ccc([N+]2=NC(c3ccc([N+](=O)[O-])cc3)=NN(c3ccccc3)C2)cc1
inactive: 786-0 > 100 µM | HCT-116 46 µM | HOP-62 > 100 µM | HT-29 34 µM | LOX IMVI 30.1 µM | MOLT-4 21.6 µM | Malme-3M > 100 µM | NCI-H460 25.9 µM | OVCAR-4 22.6 µM | OVCAR-5 > 100 µM | SF-295 > 10 µM | SK-MEL-5 21 µM | SN12C > 100 µM | SNB-19 71.9 µM | SR 32.9 µM | U-251 37.3 µM | UO-31 26.9 µM

O=C(O)[C@H](NS(=O)(=O)c1ccc(F)cc1)c1ccccc1
inactive: 786-0 > 100 µM | HCT-116 > 100 µM | HOP-62 > 100 µM | HT-29 > 100 µM | LOX IMVI > 100 µM | MOLT-4 > 100 µM | Malme-3M > 100 µM | NCI-H460 > 100 µM | OVCAR-4 > 100 µM | OVCAR-5 > 100 µM | SF-295 > 100 µM | SK-MEL-2 > 100 µM | SK-MEL-5 > 100 µM | SN12C > 100 µM | SNB-19 > 100 µM | U-251 > 100 µM | UO-31 > 100 µM

CC(C)=CC(=O)CC(=O)C(=O)Nc1ccc(C)c(C)c1
inactive: 786-0 > 100 µM | HCT-116 > 100 µM | HT-29 > 100 µM | LOX IMVI > 100 µM | MOLT-4 > 100 µM | Malme-3M > 100 µM | SF-295 > 100 µM | SK-MEL-2 > 100 µM | SN12C > 100 µM | SNB-19 > 100 µM | SR > 100 µM | U-251 > 100 µM | UO-31 > 100 µM

COc1cc2cccc(/N=C\c3cccc(OC)c3OC(C)C)c2cc1OC
inactive: 786-0 18.5 µM | HOP-62 26.5 µM | HT-29 23.2 µM | MOLT-4 19.1 µM | Malme-3M 22.3 µM | NCI-H460 33.9 µM | OVCAR-4 18.7 µM | OVCAR-5 > 100 µM | SF-295 19 µM | SK-MEL-2 18 µM | SK-MEL-5 24.8 µM | SN12C 40.1 µM | U-251 19.7 µM | UO-31 30.1 µM

Nc1c(-c2nc3ccccc3[nH]2)sc(=S)n1-c1ccccc1
inactive: 786-0 61.2 µM | HCT-116 > 100 µM | HOP-62 > 100 µM | HT-29 92.9 µM | MOLT-4 16.3 µM | Malme-3M 70.8 µM | NCI-H460 > 100 µM | OVCAR-4 > 100 µM | OVCAR-5 > 100 µM | SF-295 72.8 µM | SK-MEL-2 > 100 µM | SK-MEL-5 > 100 µM | SN12C > 100 µM | SNB-19 > 100 µM | SR 30.3 µM | U-251 76.7 µM | UO-31 > 100 µM

Cc1nc2ccccc2nc1CC(=O)C(=O)Nc1ccc(Cl)cc1Cl
inactive: 786-0 > 100 µM | HCT-116 > 100 µM | HOP-62 > 100 µM | LOX IMVI > 100 µM | MOLT-4 > 100 µM | Malme-3M > 100 µM | NCI-H460 > 100 µM | OVCAR-4 > 100 µM | OVCAR-5 > 100 µM | SF-295 > 100 µM | SK-MEL-2 > 100 µM | SK-MEL-5 > 100 µM | SN12C > 100 µM | SNB-19 > 100 µM | U-251 > 100 µM | UO-31 > 100 µM

O=[N+]([O-])c1ccc(C2=Nn3c(nnc3-c3ccccc3)SC2)o1
inactive: 786-0 20.8 µM | HCT-116 17.6 µM | HOP-62 44.3 µM | HT-29 23.7 µM | MOLT-4 24.3 µM | Malme-3M 24.1 µM | NCI-H460 18.6 µM | OVCAR-4 19.6 µM | OVCAR-5 29.6 µM | SF-295 17.4 µM | SK-MEL-2 20.9 µM | SK-MEL-5 17.7 µM | SN12C 15.7 µM | SNB-19 85.5 µM | U-251 17.4 µM

CCCN(CCC)C(=O)Cc1c2n(c3ccccc13)Cc1ccccc1-2
inactive: 786-0 57 µM | HCT-116 28.8 µM | HOP-62 > 100 µM | HT-29 61.8 µM | LOX IMVI 83.4 µM | MOLT-4 > 100 µM | Malme-3M 58.9 µM | NCI-H460 63.7 µM | OVCAR-4 49.5 µM | SF-295 33.8 µM | SK-MEL-2 94.4 µM | SK-MEL-5 29.6 µM | SN12C > 100 µM | SNB-19 > 100 µM | SR 33.1 µM | U-251 > 100 µM | UO-31 35.1 µM

Cc1cc2nc3c(=O)[nH]c(=O)nc-3n(CC(O)C(O)C(O)CO)c2cc1N (stereo unspecified)
inactive: 786-0 > 100 µM | HCT-116 > 100 µM | HT-29 > 100 µM | LOX IMVI > 100 µM | MOLT-4 > 100 µM | NCI-H460 > 100 µM | OVCAR-4 > 100 µM | SF-295 > 100 µM | SK-MEL-2 > 100 µM | SK-MEL-5 > 100 µM | SN12C > 100 µM | SNB-19 > 100 µM | UO-31 > 100 µM

C[N+]1(C)C[C@@H](O)C[C@@H]1C(=O)[O-] [BETONICINE]
inactive: 786-0 > 100 µM | HCT-116 > 100 µM | HOP-62 > 100 µM | HT-29 > 100 µM | LOX IMVI > 100 µM | MOLT-4 > 100 µM | Malme-3M > 100 µM | NCI-H460 > 100 µM | OVCAR-4 > 100 µM | SF-295 > 100 µM | SK-MEL-2 > 100 µM | SN12C > 100 µM | SNB-19 > 100 µM | SR > 100 µM | U-251 > 100 µM | UO-31 > 100 µM

NNC(=O)N/N=C(/CC1(O)C(=O)Nc2ccc(Br)cc21)c1ccccc1 (stereo unspecified)
inactive: 786-0 57.3 µM | HCT-116 27.9 µM | HT-29 30.6 µM | LOX IMVI 18.1 µM | MOLT-4 16.7 µM | Malme-3M 33.9 µM | SF-295 38.6 µM | SK-MEL-2 34.4 µM | SN12C 29.2 µM | SNB-19 11.8 µM | SR 31.6 µM | U-251 > 10 µM | UO-31 12.5 µM

COc1ccc(NC(=O)/C(=C/c2ccccc2)C(C)=O)cc1
inactive: 786-0 14.8 µM | HOP-62 18 µM | HT-29 13.3 µM | LOX IMVI 10.7 µM | MOLT-4 11.4 µM | Malme-3M 16.5 µM | NCI-H460 21.6 µM | OVCAR-4 11.6 µM | OVCAR-5 19.6 µM | SF-295 14.2 µM | SK-MEL-2 14.6 µM | SK-MEL-5 13.9 µM | SN12C 14.4 µM | SNB-19 16.2 µM | U-251 15.2 µM | UO-31 15.4 µM

From ChEMBL document CHEMBL1201862, “PubChem BioAssay data set” (2004)
